≈ marks a conversion by molar mass, not a printed value.

Data set [1] has as its target T1, Serine/threonine-protein kinase Nek1 (Homo sapiens) (UniProt Q96PY6).
T1 sequence (whole entry): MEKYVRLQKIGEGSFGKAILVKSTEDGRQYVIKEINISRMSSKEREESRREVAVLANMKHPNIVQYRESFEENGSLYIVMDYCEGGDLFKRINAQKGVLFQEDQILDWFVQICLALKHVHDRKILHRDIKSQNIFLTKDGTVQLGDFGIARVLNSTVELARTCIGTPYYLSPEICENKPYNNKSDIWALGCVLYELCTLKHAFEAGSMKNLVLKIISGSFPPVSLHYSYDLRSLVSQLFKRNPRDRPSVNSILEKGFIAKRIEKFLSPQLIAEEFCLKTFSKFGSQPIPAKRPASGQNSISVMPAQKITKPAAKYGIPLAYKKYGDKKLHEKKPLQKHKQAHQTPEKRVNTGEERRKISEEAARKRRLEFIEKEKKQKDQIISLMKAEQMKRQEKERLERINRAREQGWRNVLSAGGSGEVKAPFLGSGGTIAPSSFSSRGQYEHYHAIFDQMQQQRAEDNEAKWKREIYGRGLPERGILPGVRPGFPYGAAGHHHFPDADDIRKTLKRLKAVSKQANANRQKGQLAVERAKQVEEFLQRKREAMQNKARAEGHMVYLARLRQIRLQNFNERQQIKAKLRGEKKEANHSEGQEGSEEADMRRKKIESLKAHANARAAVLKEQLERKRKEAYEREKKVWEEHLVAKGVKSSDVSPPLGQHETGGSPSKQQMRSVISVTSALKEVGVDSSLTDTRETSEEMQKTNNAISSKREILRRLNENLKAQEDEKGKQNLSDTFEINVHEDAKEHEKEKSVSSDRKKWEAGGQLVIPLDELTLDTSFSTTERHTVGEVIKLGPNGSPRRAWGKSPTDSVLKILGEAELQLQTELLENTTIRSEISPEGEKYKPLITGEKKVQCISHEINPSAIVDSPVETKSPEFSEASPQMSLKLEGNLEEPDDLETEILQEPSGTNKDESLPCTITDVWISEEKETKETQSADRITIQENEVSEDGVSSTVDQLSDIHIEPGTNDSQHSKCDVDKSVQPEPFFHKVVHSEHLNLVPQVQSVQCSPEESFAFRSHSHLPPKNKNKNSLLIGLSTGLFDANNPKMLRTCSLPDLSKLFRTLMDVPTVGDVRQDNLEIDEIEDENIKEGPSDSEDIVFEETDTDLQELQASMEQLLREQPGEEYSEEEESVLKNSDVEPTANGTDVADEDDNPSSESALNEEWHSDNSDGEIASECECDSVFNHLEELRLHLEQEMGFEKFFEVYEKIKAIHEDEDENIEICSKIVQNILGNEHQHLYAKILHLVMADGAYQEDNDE
Put plainly: Inhibition of human NEK1 using myelin basic protein as substrate assessed as residual activity at 1 uM in presence of [gamma-33P]-ATP by radiometric hotspot kinase assay relative to control.

Data set [2] addresses T1, Serine/threonine-protein kinase Nek1 (Homo sapiens). As to the kind of experiment: Inhibition of human NEK1 using myelin basic protein as substrate assessed as residual activity at 10 uM in presence of [gamma-33P]-ATP by radiometric hotspot kinase assay relative to control.
The target in data set [3] is T2, Serine/threonine-protein kinase Nek1 (Homo sapiens, UniProt Q96PY6).
T2 sequence (Q96PY6 whole entry): T1 sequence (whole entry)
Put plainly: Inhibition of human NEK1 using myelin basic protein as substrate assessed as residual activity in presence of [gamma-33P]-ATP by radiometric hotspot kinase assay relative to control.

For data set [4], the target named is Cyclin-dependent kinase 2/cyclin E1 (Homo sapiens) (UniProt P24864+P24941). Put plainly: Inhibition of human recombinant full length C-terminal His6 tagged CDK2/ N-terminal GST-tagged Cyclin E expressed in baculovirus infected Sf21 insect cells using histone H1 as substrate assessed as residual activity at 1 uM pretreated for 20 mins followed by [33P]-ATP addition measured after 120 mins by radiometric hotspot kinase assay relative to control. The settings on record: time 140.0 min.

Data set [5] addresses T3, Serine/threonine-protein kinase Chk1 (Homo sapiens) (UniProt O14757).
T3 sequence (whole entry): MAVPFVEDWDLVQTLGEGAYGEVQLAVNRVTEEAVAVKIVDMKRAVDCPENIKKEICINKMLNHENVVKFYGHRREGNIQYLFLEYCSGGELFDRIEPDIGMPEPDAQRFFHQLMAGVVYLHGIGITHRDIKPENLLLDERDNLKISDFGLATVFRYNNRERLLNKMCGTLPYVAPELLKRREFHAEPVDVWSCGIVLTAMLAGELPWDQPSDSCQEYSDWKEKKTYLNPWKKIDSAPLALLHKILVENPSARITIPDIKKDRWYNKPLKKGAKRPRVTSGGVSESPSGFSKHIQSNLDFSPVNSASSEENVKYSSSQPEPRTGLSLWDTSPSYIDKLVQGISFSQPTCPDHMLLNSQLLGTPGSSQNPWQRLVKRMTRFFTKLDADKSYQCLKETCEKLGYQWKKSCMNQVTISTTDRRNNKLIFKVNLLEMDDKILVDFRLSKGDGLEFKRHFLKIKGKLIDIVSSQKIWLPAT
Put plainly: Inhibition of human recombinant full length N-terminal His tagged CHK1 expressed in baculovirus infected Sf21 insect cells using CHKtide as substrate assessed as residual activity at 1 uM pretreated for 20 mins followed by [33P]-ATP addition measured after 120 mins by radiometric hotspot kinase assay relative to control. The conditions noted are these: time 140.0 min.

For data set [6], the target named is Vascular endothelial growth factor receptor 2 (Homo sapiens) (UniProt P35968). Put plainly: Inhibition of human recombinant C-terminal His6 tagged VEGFR2 (789 to 1356 residues) expressed in baculovirus infected insect cells assessed as residual activity at 1 uM pretreated for 20 mins followed by [33P]-ATP addition measured after 120 mins by radiometric hotspot kinase assay relative to control. The settings on record: time 140.0 min.
Vascular endothelial growth factor receptor 2 (Homo sapiens), sequence (P35968 whole entry, the tested form may be a part): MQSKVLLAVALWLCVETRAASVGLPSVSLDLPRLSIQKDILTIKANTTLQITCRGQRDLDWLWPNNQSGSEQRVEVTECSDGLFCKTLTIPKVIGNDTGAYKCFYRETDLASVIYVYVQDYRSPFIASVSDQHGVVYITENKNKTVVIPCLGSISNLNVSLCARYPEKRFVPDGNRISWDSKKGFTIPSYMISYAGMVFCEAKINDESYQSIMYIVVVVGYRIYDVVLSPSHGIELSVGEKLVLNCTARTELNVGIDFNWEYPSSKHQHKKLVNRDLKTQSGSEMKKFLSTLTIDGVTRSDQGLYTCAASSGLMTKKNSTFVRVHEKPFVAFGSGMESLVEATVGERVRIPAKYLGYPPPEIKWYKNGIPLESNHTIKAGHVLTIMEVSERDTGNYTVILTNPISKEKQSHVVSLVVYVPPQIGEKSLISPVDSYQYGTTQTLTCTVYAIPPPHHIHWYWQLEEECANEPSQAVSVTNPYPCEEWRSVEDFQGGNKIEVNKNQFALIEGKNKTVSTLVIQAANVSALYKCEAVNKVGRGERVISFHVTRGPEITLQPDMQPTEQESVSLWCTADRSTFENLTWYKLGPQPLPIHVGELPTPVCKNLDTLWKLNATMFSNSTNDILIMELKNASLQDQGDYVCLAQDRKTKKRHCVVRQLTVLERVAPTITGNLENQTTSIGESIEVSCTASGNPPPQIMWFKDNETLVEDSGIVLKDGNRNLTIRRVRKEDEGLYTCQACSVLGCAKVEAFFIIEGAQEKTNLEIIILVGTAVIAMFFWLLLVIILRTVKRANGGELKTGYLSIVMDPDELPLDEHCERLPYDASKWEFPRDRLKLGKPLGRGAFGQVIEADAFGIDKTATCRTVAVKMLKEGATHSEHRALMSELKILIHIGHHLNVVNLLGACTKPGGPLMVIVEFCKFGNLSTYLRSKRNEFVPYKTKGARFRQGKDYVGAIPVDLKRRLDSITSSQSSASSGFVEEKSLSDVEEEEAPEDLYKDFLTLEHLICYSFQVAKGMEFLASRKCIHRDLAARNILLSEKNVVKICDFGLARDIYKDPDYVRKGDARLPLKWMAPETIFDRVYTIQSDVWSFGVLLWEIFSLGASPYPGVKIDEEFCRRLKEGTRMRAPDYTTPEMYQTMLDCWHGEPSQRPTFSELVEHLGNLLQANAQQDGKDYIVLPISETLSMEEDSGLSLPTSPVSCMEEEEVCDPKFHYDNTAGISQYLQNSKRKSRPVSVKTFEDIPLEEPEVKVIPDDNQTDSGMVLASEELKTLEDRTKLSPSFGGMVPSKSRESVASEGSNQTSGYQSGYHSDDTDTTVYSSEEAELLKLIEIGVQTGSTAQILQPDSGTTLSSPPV

In data set [7] the target is T4, Serine/threonine-protein kinase Nek5 (Homo sapiens) (UniProt Q6P3R8).
T4 sequence (whole entry): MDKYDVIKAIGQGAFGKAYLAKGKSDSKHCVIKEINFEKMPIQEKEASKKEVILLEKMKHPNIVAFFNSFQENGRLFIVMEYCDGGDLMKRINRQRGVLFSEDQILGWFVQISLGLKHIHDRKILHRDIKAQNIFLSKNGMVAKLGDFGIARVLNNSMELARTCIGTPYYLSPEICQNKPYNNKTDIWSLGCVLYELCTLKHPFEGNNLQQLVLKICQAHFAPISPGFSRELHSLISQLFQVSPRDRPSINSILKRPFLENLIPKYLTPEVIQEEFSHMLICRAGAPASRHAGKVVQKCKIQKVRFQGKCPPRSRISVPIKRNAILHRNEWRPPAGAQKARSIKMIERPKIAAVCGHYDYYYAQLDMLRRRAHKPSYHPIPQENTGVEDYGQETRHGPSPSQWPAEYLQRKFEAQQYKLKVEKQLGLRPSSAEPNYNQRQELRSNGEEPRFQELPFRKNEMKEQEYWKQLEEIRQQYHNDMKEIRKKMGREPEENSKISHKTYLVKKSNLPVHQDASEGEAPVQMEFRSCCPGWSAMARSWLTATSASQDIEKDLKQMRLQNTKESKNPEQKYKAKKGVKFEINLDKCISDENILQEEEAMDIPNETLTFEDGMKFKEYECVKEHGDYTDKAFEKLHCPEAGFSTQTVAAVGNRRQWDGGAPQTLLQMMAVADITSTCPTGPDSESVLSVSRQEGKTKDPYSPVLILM
Put plainly: Inhibition of human recombinant NEK5 assessed as residual activity at 1 uM pretreated for 20 mins followed by [33P]-ATP addition measured after 120 mins by radiometric hotspot kinase assay relative to control. The conditions noted are these: time 140.0 min.

Data set [8] has as its target Wee1-like protein kinase (Homo sapiens) (UniProt P30291). As to the kind of experiment: Inhibition of human recombinant full length WEE1 expressed in insect cells using MBP as substrate assessed as residual activity at 1 uM pretreated for 20 mins followed by [33P]-ATP addition measured after 120 mins by radiometric hotspot kinase assay relative to control. The settings on record: time 140.0 min.

Data set [9] in a line: Solubility of the compound in E3 medium with 0.2% DMSO by DAD-HPLC based shake flask method. It counts as physicochemical.
Data set [10] in a line: Solubility of the compound in DMEM with 1% DMSO by DAD-HPLC based shake flask method. It counts as physicochemical.
A short description of data set [11]: Stability of the compound in DMEM measured after 48 hrs by DAD-HPLC method. It counts as physicochemical. The settings on record: read-out: Stability.

Wee1-like protein kinase (Homo sapiens), sequence (P30291 whole entry, looked up): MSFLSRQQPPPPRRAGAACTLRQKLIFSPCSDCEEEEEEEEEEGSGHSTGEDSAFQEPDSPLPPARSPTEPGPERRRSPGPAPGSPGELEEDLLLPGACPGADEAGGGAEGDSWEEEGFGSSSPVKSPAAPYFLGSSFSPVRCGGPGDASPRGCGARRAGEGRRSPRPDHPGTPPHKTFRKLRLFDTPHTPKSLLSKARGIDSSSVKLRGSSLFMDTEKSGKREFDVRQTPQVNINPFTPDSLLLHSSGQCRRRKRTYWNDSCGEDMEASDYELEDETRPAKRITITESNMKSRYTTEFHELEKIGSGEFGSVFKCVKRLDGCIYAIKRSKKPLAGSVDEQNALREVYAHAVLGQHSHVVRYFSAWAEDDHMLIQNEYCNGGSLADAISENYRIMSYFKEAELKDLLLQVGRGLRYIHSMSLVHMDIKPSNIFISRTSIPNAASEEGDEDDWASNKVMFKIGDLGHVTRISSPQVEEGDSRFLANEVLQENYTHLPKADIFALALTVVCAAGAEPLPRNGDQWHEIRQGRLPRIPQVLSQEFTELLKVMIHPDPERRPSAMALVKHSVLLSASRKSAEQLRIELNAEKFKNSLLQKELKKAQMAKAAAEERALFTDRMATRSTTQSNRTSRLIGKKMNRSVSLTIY

For the molecule `Cc1cc(Nc2ccnc(NCc3ccc4c(c3)OCO4)n2)n[nH]1`, the Activity in data set [1] was found to be 97.2%. Same read-out and setting: the figure for `COC(=O)c1cccc(-c2cnc3[nH]cc(-c4cccc(C)c4)c3c2)c1` is 46.4%.

In the case of `N#Cc1cccc(-c2cnc3[nH]cc([N+](=O)[O-])c3c2)c1`, in data set [1], the Activity was over 100%. The same measure, in the same setting: the figure for `N#Cc1cccc(-c2cnc3[nH]cc(-c4ccncc4)c3c2)c1` is 74.3%. Turning to `CNC(=O)c1cccc(-c2cnc3[nH]ccc3c2)c1`, the Activity in data set [2] stood at 67.2%. Regarding `Cc1ccc(-c2c[nH]c3ncc(-c4cccc(C#N)c4)cc23)cc1`, the Activity in data set [1] worked out at 72.8%. The same measure, in the same setting: the figure for `Cc1cc(Nc2ccnc(Nc3cccc4ccccc34)n2)n[nH]1` is 90.1%; for `N#Cc1cccc(-c2cnc3[nH]cc(Cl)c3c2)c1` it is over 100%.

Take `Cc1cc(Nc2ccnc(Nc3ccccc3)n2)n[nH]1`: in data set [1], the Activity is 74.8%. `COC(=O)c1cccc(-c2cnc3[nH]cc(-c4ccccc4C)c3c2)c1`: the Activity in [1] came out at 61%. As to `COC(=O)c1cccc(-c2cnc3[nH]cc(-c4ccccc4OC)c3c2)c1`, the Activity in data set [1] stood at 60.9%. With `O=[N+]([O-])c1cccc(-c2cnc3[nH]ccc3c2)c1`, the Activity in data set [2] was found to be 78.5%. In the case of `c1ccc(Nc2nccc(Nc3cc(-c4ccccc4)[nH]n3)n2)cc1`, the Activity in [1] was 65.9%. As to `Cc1cc(Nc2ccnc(NC3CC3)n2)n[nH]1`, the Activity in [1] came to 95.1%. Same read-out and setting: for `Cc1ccc(CNc2nccc(Nc3cc(C)[nH]n3)n2)cc1` the value was 86.8%. The same measure, in the same setting: the figure for `COC(=O)c1cccc(-c2cnc3[nH]cc(-c4ccc(C)cc4)c3c2)c1` is 47.9%.

As for `N#Cc1cccc(-c2cnc3[nH]cc(-c4ccccc4)c3c2)c1`, the Activity in data set [1] amounted to 52.3%. With `O=[N+]([O-])c1cccc(Nc2nccc(Nc3cc(C4CC4)[nH]n3)n2)c1`, in data set [1], the Activity worked out at 28.5%. Still for that read-out and setting: the figure for `Cc1cc(Nc2ccnc(Nc3ccccc3C)n2)n[nH]1` is 87.5%; for `COc1cccc(-c2c[nH]c3ncc(-c4cccc(C#N)c4)cc23)c1` it is 41.1%; for `Cc1cc(Nc2ccnc(Nc3cccc([N+](=O)[O-])c3)n2)n[nH]1` it is 36.6%.

Regarding `Cc1cc(Nc2ccnc(NCc3cccnc3)n2)n[nH]1`, the Activity in data set [1] was 101%. Take `Cc1cc(Nc2ccnc(N3CCN(C)CC3)n2)n[nH]1`: in data set [1], the Activity came to 98.4%. In the case of `COC(=O)c1cccc(-c2cnc3[nH]ccc3c2)c1`, in data set [2], the Activity amounted to 44.7%. Take `N#Cc1cccc(-c2cnc3[nH]cc(Br)c3c2)c1`: in data set [1], the Activity is over 100%. Regarding `Cc1cc(Nc2ccnc(NCc3ccccc3)n2)n[nH]1`, the Activity in data set [1] is 95.4%.

For the molecule `c1ccc(-c2cnc3[nH]cc(-c4ccccc4)c3c2)cc1`, the Activity in data set [1] is 29.3%. For the molecule `N#Cc1cccc(-c2cnc3[nH]ccc3c2)c1`, the Activity in [2] stood at 64.7%. For the molecule `Cc1cc(Nc2ccnc(N(C)c3ccccc3)n2)n[nH]1`, the Activity in data set [1] came to 89.8%.

Turning to `Cc1cc(Nc2ccnc(N(C)Cc3ccccc3)n2)n[nH]1`, in data set [1], the Activity turned out to be 91.8%.

In the case of `COCCNc1nccc(Nc2cc(C)[nH]n2)n1`, the Activity in [1] is 99.8%. On to `Cc1cc(Nc2ccnc(NCc3ccccn3)n2)n[nH]1`, for which, in data set [1], the Activity stood at 90.8%. On the same count and under the same terms, for `COC(=O)c1cccc(-c2cnc3[nH]cc(-c4cccc([N+](=O)[O-])c4)c3c2)c1` the value was 28.5%. In the case of `O=C(O)c1cccc(-c2cnc3[nH]ccc3c2)c1`, the Activity in data set [2] was determined as 72.8%. Same read-out and setting: for `c1ccc(-c2cnc3[nH]ccc3c2)cc1` the value was 62.9%.

Consider `N#Cc1cccc(-c2cnc3[nH]cc(-c4cccnc4)c3c2)c1`, for which the Activity was determined as 17.4% in [1]; 2.9% in data set [4]; 69.6% in data set [5]; 35% in data set [6]; 27.9% in data set [7]; 83.4% in [8]. Also, in data set [3], the IC50 came to 0.129 µM. The values for the solubility in [9] and in [10] were 7.2 µM (≈ 2.13 µg/mL) and 5.7 µM (≈ 1.69 µg/mL), respectively. In addition, in [11], the remaining at 48 h was determined as 98%. As to `COC(=O)c1cccc(-c2cnc3[nH]cc(-c4ccccc4)c3c2)c1`, the Activity in data set [1] was 7.31%; in [4] it was 23.5%; in [5] it was over 100%; in data set [6], 97.2%; in data set [7] it was 78.7%; in data set [8], 82.9%. In addition, the IC50 in data set [3] was found to be 0.123 µM. Further, the solubility in [9] stood at 2.5 µM (≈ 0.821 µg/mL); in [10] it was 4.4 µM (≈ 1.44 µg/mL). The remaining at 48 h in data set [11] was determined as 86%.

Consider `c1ccc(Nc2nccc(Nc3cc(C4CC4)[nH]n3)n2)cc1`, for which, in data set [3], the IC50 is 0.85 µM. On to `CCCCNc1nccc(Nc2cc(C)[nH]n2)n1`, for which the Activity in data set [1] was found to be 86.9%.

(Values after ChEMBL document CHEMBL5053535, “Design, synthesis and biological evaluation of novel aminopyrazole- and 7-azaindole-based Nek1 inhibitors and their effects on zebrafish kidney development” (Bioorg Med Chem Lett, 2021).)
